# Laboratory results published in patent publication US4166810A, “Derivatives of 4-desacetyl VLB C-3 carboxyhydrazide” (priority 1978, dated 1979).
# Like-named read-outs stand apart in the source and are kept apart here.
# What was measured:
# [1] = tested on: Gardner lymphosarcoma (GLS); assay: Transplanted tumor growth inhibition in mice, Gardner lymphosarcoma (GLS); assay type: in vivo; conditions: for inhibition in vivo at 0.125 mg/kg: 0.125 mg/kg × 10 days; for inhibition in vivo at 0.25 mg/kg: 0.25 mg/kg × 10 days
# Method: (§1) The compounds of this invention are active in inhibiting the growth of transplanted tumors in mice and/or in prolonging the life of tumor-innoculated mice. […] The size of the tumor was measured at 7 or 11 days where the drug inhibited tumor growth. Where life-prolongation was concerned, extra life span of treated animals over that of control animals was determined.
# (§2) The following table--Table 1--gives the results of experiments in which mice bearing transplanted tumors were treated successfully with a compound of this invention. In the table, column 1 gives the name of the compound; column 2, the transplanted tumor; column 3, the dose level or dose level range and the number of days the dosage was administered; and column 4, the percent inhibition of tumor growth or percent prolongation of survival time, e.g., B16 (ROS is an abbreviation for Ridgeway osteogenic sarcoma; GLS for Gardner lymphosarcoma; P 1534 (J) for a leukemia and B16 for a malignant melanoma.
# [2] = tested on: B16 malignant melanoma; assay: Survival prolongation in mice bearing B16 malignant melanoma; assay type: in vivo
# Method: as §1, §2
# [3] = tested on: transplanted tumors; conditions: Belgian Pat. No. 813,168; cited from earlier work
# [4] = tested on: P 1534(J) leukemia; conditions: Belgian Pat. No. 813,168; cited from earlier work
# [5] = tested on: Ridgeway osteogenic sarcoma; conditions: Belgian Pat. No. 813,168; cited from earlier work
# [6] = tested on: Gardner lymphosarcoma; conditions: Belgian Pat. No. 813,168; cited from earlier work
# [7] = tested on: experimental malignancies; conditions: animals; cited from earlier work
# [8] = humans; compared with vincristine; cited from earlier work
# [9] = tested on: leukemias; conditions: clinical trial in humans; cited from earlier work
# [10] = tested on: vincristine-resistant leukemias; conditions: humans; cited from earlier work
# [11] = Mus musculus, 168 h, measured at 7 days, read-out: Percent Inhibition (of tumor growth), 7 days
# [12] = Mus musculus, 264 h, measured at 11 days, read-out: Percent Inhibition (of tumor growth), 11 days
compound,measurement,setting,value
CCC1(O)CC2CN(CCc3c([nH]c4ccccc34)C(C(=O)OC)(c3cc4c(cc3OC)N(C)C3C(O)(C(=O)NNC(C)=O)C(O)C5(CC)C=CCN6CCC43C65)C2)C1 (stereo not shown) [4-Desacetyl VLB C-3 N^2-acetylcarboxhydrazide],"Percent Inhibition (of tumor growth), 11 days","[1]; 0.5 mg/kg × 10 days, measured at 11 days",Toxic
same,inhibition in vivo at 0.125 mg/kg,[1]; [11],100%
same,inhibition in vivo at 0.25 mg/kg,[1]; [11],100%
same,inhibition in vivo at 0.5 mg/kg,"[1]; Mus musculus, 168 h, 0.5 mg/kg × 10 days, measured at 7 days, read-out: Percent Inhibition (of tumor growth), 7 days",100%
same,inhibition in vivo at 0.125 mg/kg,[1]; [12],93%
same,inhibition in vivo at 0.25 mg/kg,[1]; [12],100%
same,Percent Prolongation (of survival time),[2]; 0.15 mg/kg × 3 days,71%
same,Percent Prolongation (of survival time),[2]; 0.3 mg/kg × 3 days,100%
same,Percent Prolongation (of survival time),[2]; 0.6 mg/kg × 3 days,109%
same,Percent Prolongation (of survival time),[2]; 0.9 mg/kg × 3 days,84%
same,Percent Prolongation (of survival time),[2]; 1.2 mg/kg × 3 days,69%
CCC1(O)CC2CN(CCc3c([nH]c4ccccc34)C(C(=O)OC)(c3cc4c(cc3OC)N(C)C3C(O)(C(=O)NN)C(O)C5(CC)C=CCN6CCC43C65)C2)C1 (stereo not shown) [4-Desacetyl VLB C-3 carboxhydrazide],anti-tumor activity against transplanted tumors in mice,[3],active anti-tumor agent against transplanted tumors in mice
same,activity against P 1534(J) leukemia,[4],active
same,activity against Ridgeway osteogenic sarcoma,[5],active
same,activity against Gardner lymphosarcoma,[6],active
"CCC1CC2CN(CCc3c([nH]c4ccccc34)C(C(=O)OC)(c3cc4c(cc3OC)N(C)C3C(O)(C(=O)OC)C(OC(C)=O)C5(CC)C=CCN6CCC43C65)C2)C1 (stereo not shown) [deoxy VLB ""A""]",activity in the treatment of experimental malignancies,[7],found active in the treatment of experimental malignancies in animals
CCC1(O)CN2CCc3c([nH]c4ccccc34)C(C(=O)OC)(c3cc4c(cc3OC)N(C)C3C(O)(C(=O)OC)C(OC(C)=O)C5(CC)C=CCN6CCC43C65)CC(O)(C2)C1 (stereo not shown) [leurocolombine],activity in the treatment of experimental malignancies,[7],found active in the treatment of experimental malignancies in animals
CC[C@]12CN3CCc4c([nH]c5ccccc45)[C@@](C(=O)OC)(c4cc5c(cc4OC)N(C=O)[C@H]4[C@@](O)(C(=O)OC)[C@H](OC(C)=O)[C@]6(CC)C=CCN7CC[C@]54[C@@H]76)C[C@@H](C3)[C@H]1O2 [leuroformine],activity in the treatment of experimental malignancies,[7],found active in the treatment of experimental malignancies in animals
CC[C@]12CN3CCc4c([nH]c5ccccc45)[C@@](C(=O)OC)(c4cc5c(cc4OC)N(C)[C@H]4[C@@](O)(C(=O)OC)[C@H](OC(C)=O)[C@]6(CC)C=CCN7CC[C@]54[C@@H]76)C[C@H](C3)[C@H]1O2 [leurosine],activity in the treatment of experimental malignancies,[7],found active in the treatment of experimental malignancies in animals
CCC1(O)CN2CCc3c([nH]c4ccccc34)C(C(=O)OC)(c3cc4c(cc3OC)N(C)C3C(O)(C(=O)OC)C(OC(C)=O)C5(CC)C=CCN6CCC43C65)CC(C2)C1O (stereo not shown) [vincadioline],activity in the treatment of experimental malignancies,[7],found active in the treatment of experimental malignancies in animals
"CC[C@]1(O)C[C@H]2CN(CCc3c([nH]c4ccccc34)[C@@](C(=O)OC)(c3cc4c(cc3OC)N(C=O)[C@H]3[C@@](O)(C(=O)OC)[C@H](OC(C)=O)[C@]5(CC)C=CCN6CC[C@]43[C@@H]65)C2)C1 [vincristine, leurocristine]",activity in the treatment of experimental malignancies,[7],found active in the treatment of experimental malignancies in animals
"CC[C@]1(O)C[C@@H]2CN(CCc3c([nH]c4ccccc34)[C@@](C(=O)OC)(c3cc4c(cc3OC)N(C)[C@H]3[C@@](O)(C(N)=O)[C@H](O)[C@]5(CC)C=CCN6CC[C@]43[C@@H]65)C2)C1 [vindesine, 4-desacetyl VLB C-3 carboxamide]",neurotoxicity,[8],less neurotoxicity than does vincristine
same,activity in leukemias,[9],found active in certain leukemias
same,effectiveness against vincristine-resistant leukemias,[10],apparently effective against vincristine-resistant leukemias
leurosidine,activity in the treatment of experimental malignancies,[7],found active in the treatment of experimental malignancies in animals
